Counter-ions that a name gives are not always drawn. Like-named read-outs stand apart in the source and are kept apart here.
Molecular target: PAI-1 (Homo sapiens, UniProt P05121)
Assay: biochemical
Conditions: for inhibition at 20 µM: 20 μM (third part of Table 1); for inhibition at 20 µM / inhibition at 6.25 µM / inhibition at 50 µM / inhibition at 100 µM / inhibition at 12.5 µM / inhibition at 25 µM: read-out: Degree of inhibition in PAI chromogenic substrate assay; for IC50: PAI chromogenic substrate assay, read-out: IC50
Method: In this assay, a compound is incubated with PAI-1 prior to addition to the tPA assay system. Inhibition of PAI-1 results in the production of plasmin from plasminogen. In turn, plasmin cleaves the chromogenic substrate S2251 (Kabi Vitrum) producing pNA (p-nitroaniline) which is detected spectrophotometrically at 405 nm (K. Nilsson et al, Fibrinolysis (1987) 1, 163-168).
Compounds of formula (A) were tested in a PAI chromogenic substrate assay. In the assay (K.Nilsson, Fibrinolysis (1987) 1, 163-168) each compound was incubated with PAI-1 prior to addition to the tPA assay system. […] In turn, the plasmin cleaved the chromogenic substrate S2251 (Kabi-Vitrum) producing pNA (p-nitroaniline) which was detected spectrophotometrically at 405 nm.

Chain of PAI-1 (P05121 24-402): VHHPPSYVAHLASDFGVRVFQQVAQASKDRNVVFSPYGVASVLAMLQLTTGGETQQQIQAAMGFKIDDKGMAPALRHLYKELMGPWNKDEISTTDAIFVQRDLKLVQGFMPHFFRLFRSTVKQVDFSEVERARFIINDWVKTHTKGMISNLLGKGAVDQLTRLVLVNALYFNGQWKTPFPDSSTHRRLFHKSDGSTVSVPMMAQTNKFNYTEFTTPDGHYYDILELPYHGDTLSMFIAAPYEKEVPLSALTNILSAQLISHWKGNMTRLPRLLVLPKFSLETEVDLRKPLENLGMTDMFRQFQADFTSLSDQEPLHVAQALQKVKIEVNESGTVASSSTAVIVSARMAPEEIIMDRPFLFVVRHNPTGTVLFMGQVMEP

For `CN(C)CCCOc1ccc(/C=c2\[nH]c(=O)/c(=C/c3ccc(C(=O)NCCCc4ccccc4)cc3)[nH]c2=O)cc1` [Compound 5346, N-(3-Phenylpropyl)-4-((3Z,6Z)-6-(4-(3-Dimethylaminopropoxy)benzylidene)-2,5-dioxo-3-piperazinylidene)methylbenzamide], the inhibition at 20 µM was 15%.

With `CN(C)CCOc1ccc(/C=c2\[nH]c(=O)/c(=C/c3c(Cl)cccc3Cl)[nH]c2=O)cc1` [Compound 1952] the inhibition at 6.25 µM (6.25 μM) was 0%, the Degree of inhibition in PAI chromogenic substrate assay (12.5 μM) was 1% and the Degree of inhibition in PAI chromogenic substrate assay (25 μM) was 19%. The inhibition at 50 µM (50 μM) was 37% and the inhibition at 100 µM (100 μM) was 63%.

For `CN(C)CCCOc1ccc(/C=c2\[nH]c(=O)/c(=C/c3ccccc3C(F)(F)F)[nH]c2=O)cc1` [Compound 5251, (3Z,6Z)-6-(4-(3-Dimethylaminopropoxy)benzylidene)-3-(2-trifluoromethylbenzylidene)-2,5-piperazinedione], the inhibition at 100 µM (100 μM (third part of Table 1)) was 71% and the IC50 was 67 µM.

In the case of `CN(C)CCCOc1ccc(/C=c2\[nH]c(=O)/c(=C/c3ccccc3[N+](=O)[O-])[nH]c2=O)cc1` [Compound 5210, (3Z,6Z)-6-(4-(3-Dimethylaminopropoxy)benzylidene)-3-(2-nitrobenzylidene)-2,5-piperazinedione], the IC50 is reported as 67 µM.

Compound `CN(C)CCCOc1ccc(/C=c2\[nH]c(=O)/c(=C/c3cccc(F)c3)[nH]c2=O)cc1` [Compound 5373, (3Z,6Z)-6-(4-(3-Dimethylaminopropoxy)benzylidene)-3-(3-fluorobenzylidene)-2,5-piperazinedione] has an IC50 of 13 µM.

Compound `CN(C)CCCOc1ccc(/C=c2\[nH]c(=O)/c(=C/c3ccc(C#N)cc3)[nH]c2=O)cc1` [Compound 5348] has an inhibition at 20 µM of 15%.

Compound `CN(C)CCOc1ccc(/C=c2\[nH]c(=O)/c(=C/c3ccccc3)[nH]c2=O)cc1OCCN(C)C` [Compound 1949, (3Z,6Z)-3-Benzylidene-6-(3,4-di-(2-dimethylaminoethoxy)benzylidene)-2,5-piperazinedione] has a Degree of inhibition in PAI chromogenic substrate assay (6.25 μM) of 1%, a Degree of inhibition in PAI chromogenic substrate assay (12.5 μM) of 1% and a Degree of inhibition in PAI chromogenic substrate assay (25 μM) of 1%. For the same compound, the Degree of inhibition in PAI chromogenic substrate assay (50 μM) was 1% and the Degree of inhibition in PAI chromogenic substrate assay (100 μM) was 3%.

With `CCCCCCOc1ccc(/C=c2\[nH]c(=O)/c(=C/c3ccc(OC)cc3)[nH]c2=O)cc1` [Compound 1907, (3Z,6Z)-3-(4-Hexyloxybenzylidene)-6-(4-methoxybenzylidene)-2,5-piperazinedione] the inhibition at 6.25 µM (6.25 μM) was 10%, the inhibition at 12.5 µM (12.5 μM) was 23% and the inhibition at 25 µM (25 μM) was 37%. For the same compound, the inhibition at 50 µM (50 μM) was 69% and the inhibition at 100 µM (100 μM) was 80%.

`CCCCOc1ccc(/C=c2\[nH]c(=O)/c(=C/c3ccc(OCCCN(C)C)cc3)[nH]c2=O)cc1` [Compound 5250] was tested, and the inhibition at 20 µM was 10%, the inhibition at 100 µM (100 μM (third part of Table 1)) was 25% and the IC50 was 14 µM.

`CN(C)CCSCc1ccc(/C=c2\[nH]c(=O)/c(=C/c3ccccc3Br)[nH]c2=O)cc1` [Compound 5080.HCl, (3Z,6Z)-3-(2-Bromobenzylidene)-6-(4-(2-Dimethylaminoethylthiomethyl)benzylidene)-2,5-piperazinedione] was tested, and the inhibition at 20 µM was 10%, the inhibition at 50 µM (50 μM (third part of Table 1)) was 48% and the inhibition at 100 µM (100 μM (third part of Table 1)) was 62%.

With `CN(C)CCCOc1ccc(/C=c2\[nH]c(=O)/c(=C/c3ccc(OCCCN(C)C)cc3)[nH]c2=O)cc1` [Compound 1955, (3Z,6Z)-3,6-Di-(4-(3-dimethylaminopropoxy)benzylidene)-2,5-piperazinedionebis hydrogen succinate (1:2)] the Degree of inhibition in PAI chromogenic substrate assay (6.25 μM) was 0%, the inhibition at 12.5 µM (12.5 μM) was 2% and the inhibition at 25 µM (25 μM) was 3%. The inhibition at 50 µM (50 μM) was 2% and the inhibition at 100 µM (100 μM) was 9%.

Work on `COC(=O)c1ccc(/C=c2\[nH]c(=O)/c(=C/c3ccc(OCCCN(C)C)cc3)[nH]c2=O)cc1` [Compound 5401, Methyl 4((3Z,6Z)-6-(4-(3-Dimethylaminopropoxy)benzylidene)-2,5-dioxo-3-piperazinylidene)methylbenzoate] yielded an inhibition at 20 µM of 42%.

Compound `CN(C)CCOc1ccc(/C=c2\[nH]c(=O)/c(=C/c3ccccc3)[nH]c2=O)cc1` [Compound 1956] has a Degree of inhibition in PAI chromogenic substrate assay (6.25 μM) of 31%, a Degree of inhibition in PAI chromogenic substrate assay (12.5 μM) of 65% and a Degree of inhibition in PAI chromogenic substrate assay (25 μM) of 69%. The Degree of inhibition in PAI chromogenic substrate assay (50 μM) was 69% and the Degree of inhibition in PAI chromogenic substrate assay (100 μM) was 61%.

`CN(C)CCOc1ccc(/C=c2\[nH]c(=O)/c(=C/c3ccccc3)[nH]c2=O)c(OCCN(C)C)c1` [Compound 1984] gave a Degree of inhibition in PAI chromogenic substrate assay (12.5 μM) of 0%, a Degree of inhibition in PAI chromogenic substrate assay (25 μM) of 0% and a Degree of inhibition in PAI chromogenic substrate assay (50 μM) of 0%. For the same compound, the Degree of inhibition in PAI chromogenic substrate assay (100 μM) was 17%.

Work on `CN(C)CCCOc1ccc(/C=c2\[nH]c(=O)/c(=C/c3ccc(F)cc3)[nH]c2=O)cc1` [Compound 5365.HCl, (3Z,6Z)-3-(4-(3-Dimethylaminopropoxy)benzylidene)-6-(4-fluorobenzylidene)-2,5-piperazinedione] yielded an IC50 of 3.3 µM.

`CN(C)CCCOc1ccc(/C=c2\[nH]c(=O)/c(=C/c3ccccc3Br)[nH]c2=O)cc1` [Compound 5060.HCl, (3Z,6Z)-3-(2-Bromobenzylidene)-6-(4-(3-dimethylaminopropoxy)benzylidene)-2,5-piperazinedione] showed an inhibition at 20 µM of 52%, an inhibition at 50 µM (50 μM (third part of Table 1)) of 65% and an inhibition at 100 µM (100 μM (third part of Table 1)) of 75%.

With `CN(C)CCOc1ccc(/C=c2\[nH]c(=O)/c(=C/c3ccccc3)[nH]c2=O)c(Cl)c1` [Compound 1951, (3Z,6Z)-3-Benzylidene-6-(2-chloro-4-(2-dimethylaminoethoxy)benzylidene)-2,5-piperazinedione] the Degree of inhibition in PAI chromogenic substrate assay (6.25 μM) was 0%, the Degree of inhibition in PAI chromogenic substrate assay (12.5 μM) was 1% and the Degree of inhibition in PAI chromogenic substrate assay (25 μM) was 2%. It also gave a Degree of inhibition in PAI chromogenic substrate assay (50 μM) of 23% and a Degree of inhibition in PAI chromogenic substrate assay (100 μM) of 43%.

For `COc1ccc(/C=c2\[nH]c(=O)/c(=C/c3ccc(OCCCN(C)C)cc3)[nH]c2=O)cc1` [Compound 5234, (3Z,6Z)-3-(4-(3-Dimethylaminopropoxy)benzylidene)-6-(4-methoxybenzylidene)-2,5-piperazinedione], the inhibition at 100 µM (100 μM (third part of Table 1)) was 10%.

`CN(C)CCCOc1ccc(/C=c2\[nH]c(=O)/c(=C/c3ccccc3Cl)[nH]c2=O)cc1` [Compound 5249, (3Z,6Z)-3-(2-Chlorobenzylidene)-6-(4-(3-dimethylaminopropoxy)benzylidene)-2,5-piperazinedione] showed an inhibition at 20 µM of 10% and an inhibition at 100 µM (100 μM (third part of Table 1)) of 55%.

`CN(C)CCCOc1ccc(/C=c2\[nH]c(=O)/c(=C/c3ccccc3[N+](=O)[O-])[nH]c2=O)cc1` [Compound 5208, (3Z,6Z)-6-(4-(3-Dimethylaminopropoxy)benzylidene)-3-(2-nitrobenzylidene)-2,5-piperazinedione] gave an inhibition at 20 µM of 10% and an inhibition at 100 µM (100 μM (third part of Table 1)) of 32%.

In the case of `CN(C)CCCOc1ccc(/C=c2\[nH]c(=O)/c(=C/c3ccc(C(F)(F)F)cc3)[nH]c2=O)cc1` [Compound 5239, (3Z,6Z)-3-(4-(3-Dimethylaminopropoxy)benzylidene)-6-(4-trifluoromethylbenzylidene)-2,5-piperazinedione], the inhibition at 20 µM is reported as 65%, the inhibition at 100 µM (100 μM (third part of Table 1)) is reported as 68% and the IC50 is reported as 7 µM.

Compound `CN(C)CCCOc1ccc(/C=c2\[nH]c(=O)/c(=C/c3cc(Cl)cc(Cl)c3)[nH]c2=O)cc1` [Compound 5372, (3Z,6Z)-3-(3,5-Dichlorobenzylidene)-6-(4-(3-dimethylaminopropoxy)benzylidene)-2,5-piperazinedione] has an IC50 of 11 µM.

Work on `CN(C)CCOc1ccc(/C=c2\[nH]c(=O)/c(=C/c3ccccc3)[nH]c2=O)cc1OCCN(C)C` [Compound 1978, (3Z,6Z)-6-Benzylidene-3-(3,4-di-(2-dimethylaminoethoxy)benzylidene)-2,5-piperazinedione] yielded a Degree of inhibition in PAI chromogenic substrate assay (6.25 μM) of 3%, a Degree of inhibition in PAI chromogenic substrate assay (12.5 μM) of 0% and a Degree of inhibition in PAI chromogenic substrate assay (25 μM) of 11%. The Degree of inhibition in PAI chromogenic substrate assay (50 μM) was 41% and the Degree of inhibition in PAI chromogenic substrate assay (100 μM) was 50%.

`CN(C)CCOc1ccc(/C=c2\[nH]c(=O)/c(=C/c3ccccc3)[nH]c2=O)c(Cl)c1.Cl` [Compound 1960, (3Z,6Z)-6-Benzylidene-3-(2-chloro-4-(2-dimethylaminoethoxy)benzylidene)-2,5-piperazinedione, hydrochloride] showed a Degree of inhibition in PAI chromogenic substrate assay (6.25 μM) of 56%, a Degree of inhibition in PAI chromogenic substrate assay (12.5 μM) of 63% and a Degree of inhibition in PAI chromogenic substrate assay (25 μM) of 67%. For the same compound, the Degree of inhibition in PAI chromogenic substrate assay (50 μM) was 64% and the inhibition at 100 µM (100 μM) was 32%.

In the case of `CN(C)CCCOc1ccc(/C=c2\[nH]c(=O)/c(=C/c3cc(Cl)cc(Cl)c3)[nH]c2=O)cc1` [Compound 5380, (3Z,6Z)-3-(3,5-Dichlorobenzylidene)-6-(4-(3-dimethylaminopropoxy)benzylidene)-2,5-piperazinedione], the IC50 is reported as 15 µM.

In the case of `CC(=O)Nc1ccccc1/C=c1\[nH]c(=O)/c(=C/c2ccc(OCCCN(C)C)cc2)[nH]c1=O` [Compound 5248], the inhibition at 100 µM (100 μM (third part of Table 1)) is reported as 10%.

With `Cc1cccc(/C=c2\[nH]c(=O)/c(=C/c3ccc(OCCCN(C)C)cc3)[nH]c2=O)c1` [Compound 5187, (3Z,6Z)-6-(4-(3-Dimethylaminopropoxy)benzylidene)-3-(3-methylbenzylidene)-2,5-piperazinedione] the inhibition at 20 µM was 10%, the inhibition at 100 µM (100 μM (third part of Table 1)) was 58% and the IC50 was 100 µM.

Work on `CN(C)CCCOc1ccc(/C=c2\[nH]c(=O)/c(=C/c3ccc(C(=O)NCc4ccccc4)cc3)[nH]c2=O)cc1` [Compound 5344, N-Benzyl-4-((3Z,6Z)-6-(4-(3-Dimethylaminopropoxy)benzylidene)-2,5-dioxo-3-piperazinylidene)methylbenzamide] yielded an inhibition at 20 µM of 40%.

Compound `CN(C)CCCOc1ccc(/C=c2\[nH]c(=O)/c(=C/c3cccc([N+](=O)[O-])c3)[nH]c2=O)cc1` [Compound 5231, (3Z,6Z)-6-(4-(3-Dimethylaminopropoxy)benzylidene)-3-(3-nitrobenzylidene)-2,5-piperazinedione] has an inhibition at 20 µM of 42%, an inhibition at 100 µM (100 μM (third part of Table 1)) of 36% and an IC50 of 1.5 µM.
